# From PMC7587356, “High-Throughput Screening for Inhibitors of the SARS-CoV-2 Protease Using a FRET-Biosensor” (Molecules, 2020)
# Counter-ions that a name gives are not always drawn. Like-named read-outs stand apart in the source and are kept apart here.
# Molecular target: SARS-CoV-2 3CLpro (Severe acute respiratory syndrome coronavirus 2, UniProt P0DTD1)
# Test: biochemical
# Type: biochemical
# Design: Replicate_1 / Replicate_2 / mean / mean (LOPAC_screen_w_protease): unit not given here
# Conditions: for inhibition at 5 µM: 4 h
# [1] = sheet LOPAC_screen_w_protease, LOPAC1280 at 5 µM, mean of two replicates, read-out: mean
# [2] = sheet LOPAC_screen_w_protease, LOPAC1280 at 5 µM, replicate 1, read-out: Replicate_1
# [3] = sheet LOPAC_screen_w_protease, LOPAC1280 at 5 µM, replicate 2, read-out: Replicate_2
# [4] = sheet LOPAC_screen_w_protease, primary screen of LOPAC1280 at 5 µM with protease, mean of the two replicates, read-out: mean
# [5] = sheet LOPAC_screen_w_protease, primary screen of LOPAC1280 at 5 µM with protease, replicate 1, read-out: Replicate_1
# [6] = sheet LOPAC_screen_w_protease, primary screen of LOPAC1280 at 5 µM with protease, replicate 2, read-out: Replicate_2
# [7] = sheet LOPAC_screen_w_protease, primary screen with protease, mean of two replicates, read-out: mean
# [8] = sheet LOPAC_screen_w_protease, primary screen with protease, replicate 1, read-out: Replicate_1
# [9] = sheet LOPAC_screen_w_protease, primary screen with protease, replicate 2, read-out: Replicate_2
# [10] = LOPAC1280 primary screen with protease, 5 µM compound, mean of the two replicates
# [11] = LOPAC1280 primary screen with protease, 5 µM compound, replicate 1
# [12] = LOPAC1280 primary screen with protease, 5 µM compound, replicate 2
# [13] = sheet LOPAC_screen_w_protease, primary screen of LOPAC1280 at 5 µM with protease, mean of the two replicates
# [14] = sheet LOPAC_screen_w_protease, primary screen of LOPAC1280 at 5 µM with protease, replicate 1
# [15] = sheet LOPAC_screen_w_protease, primary screen of LOPAC1280 at 5 µM with protease, replicate 2
# [16] = LOPAC1280 primary screen with protease, 5 µM compound, mean of two replicates
# [17] = sheet LOPAC_screen_w_protease, LOPAC1280 primary screen at 5 µM, with protease, mean of the two replicates, read-out: mean
# [18] = sheet LOPAC_screen_w_protease, LOPAC1280 primary screen at 5 µM, with protease, replicate 1, read-out: Replicate_1
# [19] = sheet LOPAC_screen_w_protease, LOPAC1280 primary screen at 5 µM, with protease, replicate 2, read-out: Replicate_2
# [20] = LOPAC1280 primary screen with protease, 5 µM compound, replicate 1, read-out: Replicate_1 (LOPAC_screen_w_protease)
# [21] = LOPAC1280 primary screen with protease, 5 µM compound, replicate 2, read-out: Replicate_2 (LOPAC_screen_w_protease)
# [22] = sheet LOPAC_screen_w_protease, LOPAC1280 primary screen with protease, 5 µM compound, mean of the two replicates, read-out: mean
# [23] = sheet LOPAC_screen_w_protease, LOPAC1280 primary screen with protease, 5 µM compound, replicate 1, read-out: Replicate_1
# [24] = sheet LOPAC_screen_w_protease, LOPAC1280 primary screen with protease, 5 µM compound, replicate 2, read-out: Replicate_2
# [25] = sheet LOPAC_screen_w_protease, primary screen with protease, mean of two replicates
# [26] = sheet LOPAC_screen_w_protease, primary screen with protease, replicate 1
# [27] = sheet LOPAC_screen_w_protease, primary screen with protease, replicate 2
# [28] = sheet LOPAC_screen_w_protease, primary screen with protease, compound at 5 µM, mean of two replicates
# [29] = sheet LOPAC_screen_w_protease, primary screen with protease, compound at 5 µM, replicate 1
# [30] = sheet LOPAC_screen_w_protease, primary screen with protease, compound at 5 µM, replicate 2
# [31] = sheet LOPAC_screen_w_protease, LOPAC1280 primary screen at 5 µM, with protease, mean of the two replicates
# [32] = sheet LOPAC_screen_w_protease, LOPAC1280 primary screen at 5 µM, with protease, replicate 1
# [33] = sheet LOPAC_screen_w_protease, LOPAC1280 primary screen at 5 µM, with protease, replicate 2
compound,measurement,setting,value
Cc1oncc1C(=O)Nc1ccc(C(F)(F)F)cc1 [Leflunomide],inhibition at 5 µM,[1],1.27%
same,inhibition at 5 µM,[2],0.0888%
same,inhibition at 5 µM,[3],2.44%
Cl.NOCC(=O)O.NOCC(=O)O,mean,"sheet LOPAC_screen_w_protease, LOPAC1280 at 5 µM, mean of two replicates",1.195
same,Replicate_1,"sheet LOPAC_screen_w_protease, LOPAC1280 at 5 µM, replicate 1",1.0596
same,Replicate_2,"sheet LOPAC_screen_w_protease, LOPAC1280 at 5 µM, replicate 2",1.33
Cn1c(=O)c2[nH]cnc2n(C)c1=O.Cn1c(=O)c2[nH]cnc2n(C)c1=O.NCCN [Aminophylline ethylenediamine],Replicate_1,,0.5539
same,Replicate_2,,-0.4553
same,mean,,0.04927
CC(C)(C)NCC(O)c1ccccc1Cl (stereo not drawn) [Tulobuterol hydrochloride],inhibition at 5 µM,[1],0.895%
same,inhibition at 5 µM,[2],2.46%
same,inhibition at 5 µM,[3],-0.673%
Cc1cc(C(C)(C)C)cc(C)c1CC1=NCCN1 [Xylometazoline hydrochloride],inhibition at 5 µM,[1],1.12%
same,inhibition at 5 µM,[2],0.813%
same,inhibition at 5 µM,[3],1.42%
CCCNCC(O)COc1ccccc1C(=O)CCc1ccccc1 (stereo not drawn) [Propafenone hydrochloride],inhibition at 5 µM,[4],3.27%
same,inhibition at 5 µM,[5],3.05%
same,inhibition at 5 µM,[6],3.48%
Oc1ccc(-c2nc(-c3ccncc3)c(-c3ccc(F)cc3)[nH]2)cc1 [SB 202190],inhibition at 5 µM,[7],2.45%
same,inhibition at 5 µM,[8],1.31%
same,inhibition at 5 µM,[9],3.6%
CC[N+](C)(CC)CC(=O)Nc1c(C)cccc1C.[Cl-] [Lidocaine N-methyl hydrochloride],mean (LOPAC_screen_w_protease),[10],2.035
same,Replicate_1 (LOPAC_screen_w_protease),[11],4.235
same,Replicate_2 (LOPAC_screen_w_protease),[12],-0.1654
CNC(=O)[C@H]1O[C@@H](n2cnc3c(N)ncnc32)[C@H](O)[C@@H]1O [5'-N-Methyl carboxamidoadenosine],mean,[13],3.814
same,Replicate_1,[14],3.632
same,Replicate_2,[15],3.996
"Cc1cn([C@H]2C=C[C@@H](CO)O2)c(=O)[nH]c1=O [2',3'-didehydro-3'-deoxythymidine]",mean (LOPAC_screen_w_protease),[10],1.906
same,Replicate_1 (LOPAC_screen_w_protease),[11],2.073
same,Replicate_2 (LOPAC_screen_w_protease),[12],1.738
N#C/C(=C\c1ccc(O)c(O)c1)C(=O)NCCCNC(=O)/C(C#N)=C/c1ccc(O)c(O)c1 [Tyrphostin AG 537],mean (LOPAC_screen_w_protease),[16],1.443
same,Replicate_1 (LOPAC_screen_w_protease),[11],1.008
same,Replicate_2 (LOPAC_screen_w_protease),[12],1.878
O=c1c2ccccc2nc2n1CCc1c-2[nH]c2ccccc12 [Rutaecarpine],inhibition at 5 µM,[17],0.598%
same,inhibition at 5 µM,[18],1.54%
same,inhibition at 5 µM,[19],-0.348%
"CN(C)c1nc(N)c(C(=O)NC(=N)N)nc1Cl [5-(N,N-Dimethyl)amiloride hydrochloride]",inhibition at 5 µM,[20],1.67%
same,inhibition at 5 µM,[21],1.33%
same,mean (LOPAC_screen_w_protease),[16],1.502
"CCCCOC(=O)NS(=O)(=O)c1sc(CC(C)C)cc1-c1ccc(Cn2c(CC)nc3c(C)cc(C)nc32)cc1 [L-162,313]",mean (LOPAC_screen_w_protease),[10],1.8394
same,Replicate_1 (LOPAC_screen_w_protease),[11],2.383
same,Replicate_2 (LOPAC_screen_w_protease),[12],1.2958
C[C@@H]1C(=O)NC2=Nc3cccc(Cl)c3CN21 [Quazinone],inhibition at 5 µM,[22],4.1%
same,inhibition at 5 µM,[23],4.2%
same,inhibition at 5 µM,[24],4%
COc1ccc(CN(CCN(C)C)c2ccccn2)cc1 [Pyrilamine maleate],inhibition at 5 µM,[7],2.44%
same,inhibition at 5 µM,[8],1.24%
same,inhibition at 5 µM,[9],3.63%
"CC(=O)N[C@@H](Cc1c[nH]c2ccccc12)C(=O)OCc1cc(C(F)(F)F)cc(C(F)(F)F)c1 [L-732,138]",mean,[25],2.284
same,Replicate_1,[26],2.97
same,Replicate_2,[27],1.597
C=CCN1CC[C@]23c4c5ccc(O)c4O[C@H]2C(=O)CC[C@@]3(O)[C@H]1C5 [Naloxone hydrochloride],inhibition at 5 µM,[4],4%
same,inhibition at 5 µM,[5],3.91%
same,inhibition at 5 µM,[6],4.09%
N=C(N)SCCc1cnc[nH]1 [Imetit dihydrobromide],inhibition at 5 µM,[7],2.25%
same,inhibition at 5 µM,[8],1.12%
same,inhibition at 5 µM,[9],3.38%
Oc1ccc(O)cc1 [Hydroquinone],inhibition at 5 µM,read-out: Replicate_1,3.41%
same,inhibition at 5 µM,read-out: Replicate_2,-0.951%
same,inhibition at 5 µM,read-out: mean,1.23%
CNC(=O)OCC[N+](C)(C)C [Methylcarbamylcholine chloride],inhibition at 5 µM,"sheet LOPAC_screen_w_protease, primary screen with protease, compound at 5 µM, mean of two replicates, read-out: mean",3%
same,inhibition at 5 µM,"sheet LOPAC_screen_w_protease, primary screen with protease, compound at 5 µM, replicate 1, read-out: Replicate_1",4.73%
same,inhibition at 5 µM,"sheet LOPAC_screen_w_protease, primary screen with protease, compound at 5 µM, replicate 2, read-out: Replicate_2",1.26%
Nc1nc(N)c2nc(CNc3ccc(C(=O)N[C@@H](CCC(=O)O)C(=O)O)cc3)cnc2n1 [Aminopterin],inhibition at 5 µM,[20],2.12%
same,inhibition at 5 µM,[21],1.52%
same,mean (LOPAC_screen_w_protease),[10],1.819
Cl.Nc1cc(Cl)c(N=C2NCCN2)c(Cl)c1 [p-Aminoclonidine hydrochloride],mean,"sheet LOPAC_screen_w_protease, primary screen with protease, 5 µM, mean of two replicates",0.1922
same,Replicate_1,"sheet LOPAC_screen_w_protease, primary screen with protease, 5 µM, replicate 1",0.5913
same,Replicate_2,"sheet LOPAC_screen_w_protease, primary screen with protease, 5 µM, replicate 2",-0.207
CC1CCN=C(N)S1.Cl (racemic) [(±)-AMT hydrochloride],Replicate_1,,3.477
same,Replicate_2,,0.9466
same,mean,,2.212
CC(Cc1ccc(O)cc1)NCC(O)c1cc(O)cc(O)c1 (stereo not drawn) [Fenoterol hydrobromide],inhibition at 5 µM,[22],5.3%
same,inhibition at 5 µM,[23],6.58%
same,inhibition at 5 µM,[24],4.02%
O=C(OCCN1CCOCC1)C1(c2ccccc2)CCCCC1 [PRE-084],mean,[13],3.777
same,Replicate_1,[14],2.6752
same,Replicate_2,[15],4.879
Cl.NC1(C(=O)O)CCCCC1,mean,[28],2.729
same,Replicate_1,[29],1.961
same,Replicate_2,[30],3.496
O=C([O-])c1cc2cc(Cc3cccnc3)ccc2o1.[Na+] [Furegrelate sodium],mean,[13],4.074
same,Replicate_1,[14],5.241
same,Replicate_2,[15],2.907
O=C(O)CC[N+](=O)[O-] [3-Nitropropionic acid],inhibition at 5 µM,[4],3.54%
same,inhibition at 5 µM,[5],2.8%
same,inhibition at 5 µM,[6],4.28%
CCCCCCCCCC(=O)NC(CN1CCOCC1)[C@H](O)c1ccccc1.Cl (mixture of isomers),mean,[31],0.5952
same,Replicate_1,[32],1.232
same,Replicate_2,[33],-0.042
O=C1OC(=O)[C@H]2[C@@H]1[C@@H]1CC[C@H]2O1 [Norcantharidin],mean,[28],2.796
same,Replicate_1,[29],1.684
same,Replicate_2,[30],3.909
N=C(N)NC(=N)Nc1ccccc1 [1-Phenylbiguanide],mean,[31],0.7649
same,Replicate_1,[32],-0.09991
same,Replicate_2,[33],1.6298
CN(C)CCCN1c2ccccc2Sc2ccc(C(F)(F)F)cc21 [Triflupromazine hydrochloride],inhibition at 5 µM,[17],0.692%
same,inhibition at 5 µM,[18],1.65%
same,inhibition at 5 µM,[19],-0.271%
Br.C=CCN1CCc2c(cc(O)c(O)c2Br)[C@@H](c2ccccc2)C1 [R(+)-6-Bromo-APB hydrobromide],mean (LOPAC screen with protease),"sheet LOPAC_screen_w_protease, primary screen at 5 µM, mean of two replicates",28.8024
same,Replicate_1 (LOPAC screen with protease),"sheet LOPAC_screen_w_protease, primary screen at 5 µM, replicate 1",26.2193
same,Replicate_2 (LOPAC screen with protease),"sheet LOPAC_screen_w_protease, primary screen at 5 µM, replicate 2",31.3855
Picrotoxin,mean,"sheet LOPAC_screen_w_protease, LOPAC1280 primary screen with protease, 5 µM compound, mean of the two replicates",4.15
same,Replicate_1,"sheet LOPAC_screen_w_protease, LOPAC1280 primary screen with protease, 5 µM compound, replicate 1",3.321
same,Replicate_2,"sheet LOPAC_screen_w_protease, LOPAC1280 primary screen with protease, 5 µM compound, replicate 2",4.978
Cc1nc2c(OCc3ccccc3)cccn2c1CC#N [SCH-28080],mean,[25],2.443
same,Replicate_1,[26],2.6463
same,Replicate_2,[27],2.24
